ChEMBL document CHEMBL5441451, “ASAP - In vitro cytotoxicity” (2024)
Values joined by “and” are separate entries in the source; they are usually repeats but may differ in a detail not shown here. Equal entries are not always repeated.

Assay: Functional metabolic assay to measure dose dependent changes in cell viability from drug treatment in HeLa-ACE2 cells. Hela-ACE2 cells are seeded prior to drug treatment, then incubated in MTT (3-[4,5-dimethylthiazol-2-yl]-2,5- diphenyltetrazolium bromide) labelling reagent and SDS. Absorbance is measured at 560 and 750 nm and analyzed by Gen5 software. The assay has been performed by Icahn School of Medicine at Mount Sinai.
Assay type: toxicity, cell-based
Details: human

SMILES	CC50 (HeLa-ACE2 cells) [µM]	CC10 (hela-ace2)	CC50 (hela-ace2) [µM]
CCNC(=O)c1cc2c(N[C@@H](c3ccc4c(c3)S(=O)(=O)CCO4)C(C)C)ncnc2[nH]1	> 20	> 20 µM	–
CNCc1cc(-c2cc3c(N[C@H](c4ccc5c(c4)S(=O)(=O)CCC5)C(C)C)ncnc3[nH]2)co1	> 20	> 20 µM	–
CC(C)[C@H](Nc1ncnc2[nH]c(-c3cnn(C)c3)cc12)c1ccc2c(c1)S(=O)(=O)CCC2	> 20	> 20 µM	–
Cn1ncc(-c2cc3c(N[C@@H](c4ccc5c(n4)OCCO5)C(C)(C)C)ncnc3[nH]2)c1C#N	> 10	> 10 µM and > 20 µM	> 20
CC(C)[C@H](Nc1ncnc2[nH]c(-c3cnn(C)c3C#N)cc12)c1ccc2c(c1)NC(=O)CO2	> 20	> 20 µM	–
CNC(=O)c1cc2c(N[C@@H](c3ccc4c(c3)S(=O)(=O)CCC4)C(C)C)ncnc2[nH]1	> 20	> 20 µM	–
CNC(=O)c1cccc(-c2cc3c(N[C@H](c4ccc5c(c4)S(=O)(=O)CCC5)C(C)C)ncnc3[nH]2)c1	> 20	> 20 µM	–
CCNC(=O)c1cc2c(N[C@H](c3ccc4c(c3)OCCO4)C(C)C)ncnc2[nH]1	> 20	> 20 µM	–
CC(C)[C@@H](Nc1ncnc2[nH]c(-c3cnn(CC(N)=O)c3)cc12)c1ccc2c(c1)S(=O)(=O)CCC2	> 20	> 20 µM	–
CC(C)[C@H](Nc1ncnc2[nH]c(-c3cnn(C)c3C#N)cc12)c1ccc2c(c1)S(=O)(=O)CCC2	> 20	> 20 µM	–
CC(C)[C@@H](Nc1ncnc2[nH]cc(C(=O)NC3CC3)c12)c1ccc2c(c1)S(=O)(=O)CCC2	> 20	> 20 µM	–
CC(C)[C@@H](Nc1ncnc2[nH]c(-c3cnn(CC(=O)N(C)C)c3)cc12)c1ccc2c(c1)S(=O)(=O)CCC2	> 20	> 20 µM	–
COc1ccc([C@@H](Cc2nnn[nH]2)NC(=O)c2ncnc3[nH]ccc23)cc1	> 20	> 20 µM	–
CC(C)[C@@H](Nc1ncnc2[nH]c(-c3cnn(C)c3)cc12)c1ccc2c(c1)S(=O)(=O)NCC2	> 20	> 20 µM	–
CCNC(=O)c1cc2c(N[C@@H](c3ccc4c(c3)S(=O)(=O)NCC4)C(C)C)ncnc2[nH]1	> 20	> 20 µM	–
CCNC(=O)c1cc2c(N[C@@H](c3ccc4c(c3)S(=O)(=O)CCC4)C(C)C)ncnc2[nH]1	> 20	> 20 µM	–
CC(C)(C)[C@H](Nc1ncnc2[nH]c(-c3cnn(CC(N)=O)c3)cc12)c1ccc2c(c1)OCCO2	> 20	> 20 µM	–
CC(C)[C@@H](Nc1ncnc2[nH]c(-c3cnn(C)c3C#N)cc12)c1ccc2c(n1)NC(=O)CO2	> 20	> 20 µM	–
CC(C)[C@@H](Nc1ncnc2[nH]c(-c3cncc(S(C)(=O)=O)c3)cc12)c1ccc2c(c1)S(=O)(=O)CCC2	> 20	> 20 µM	–
CC(C)[C@@H](Nc1ncnc2[nH]ccc12)c1ccc2c(c1)S(=O)(=O)CCO2	> 20	> 20 µM	–
CC(C)[C@@H](Nc1ncnc2[nH]c(-c3cnn(CC(=O)N(C)C)c3)cc12)c1ccc2c(c1)OCCO2	> 20	> 20 µM	–
Cc1nn(C)cc1-c1cc2c(N[C@@H](c3ccc4c(c3)S(=O)(=O)CCC4)C(C)C)ncnc2[nH]1	> 20	> 20 µM	–
CC(C)[C@@H](Nc1ncnc2[nH]c(-c3ccc4nnn(C)c4c3)cc12)c1ccc2c(c1)S(=O)(=O)CCC2	> 20	> 20 µM	–
CC(C)[C@H](Nc1ncnc2[nH]c(-c3cnn(C)c3C#N)cc12)c1ccc2c(n1)NC(=O)CO2	> 20	> 20 µM	–
CC(C)[C@@H](Nc1ncnc2[nH]c(-c3ccc4cncn4c3)cc12)c1ccc2c(c1)S(=O)(=O)CCC2	> 20	> 20 µM	–
CNC(=O)c1cccc(-c2cc3c(N[C@@H](c4ccc5c(c4)S(=O)(=O)CCC5)C(C)C)ncnc3[nH]2)c1	> 20	> 20 µM	–
